Each structure is given as a SMILES string.

Assay type in all cases: physicochemical
Data set [1] in a line: order parameter S in liquid crystal ZLI 2452 (dichroic ratio by polarized absorbance). The settings on record: room temperature, in ZLI 2452. How it is done:
The order parameter S was determined in accordance with the known equation [formula] in a commercial measurement cell of homogeneous edge orientation (polyimide). The dichroic ratio CR was determined by measuring the absorbences E^.parallel. (measurement with light polarized parallel to the preferential direction of the nematic phase) and E^.perp. (measurement with light polarized perpendicular to the preferential direction of the nematic phase) and applying the relationship [formula] the dye concentration being so chosen as to give an E^.parallel. within the range from 1 to 2. The measurements were carried out on an Hitachi U 3200 spectrophotometer.

A short description of data set [2]: absorption maximum in methylene chloride.
A short description of data set [3]: solubility in liquid crystal ZLI 2452 (saturated solution, comparison of absorbances). The conditions noted are these: room temperature, in ZLI 2452. As for the experimental part:
The solubility was determined as follows:
50 mg of the dye was stirred at room temperature into 1 ml of liquid crystal for 1 week, the saturated solution was centrifuged off the residue, and the solubility was determined by comparing the absorbences.

For `CCCCC(CC)COc1ccc(N=Nc2ccc(N=Nc3ccc(N=Nc4ccc(OCc5ccccc5)cc4C)cc3)cc2)c(CC)c1` (stereo not drawn) [Example 1], in data set [1], the “Order parameter S (at RT)” value is 0.815. The “λmax [nm] (CH2 Cl2)” value in data set [2] is listed as 417 nm. The “Solubility L [%] (at RT)” value in data set [3] is reported as 18.7%.
Take `CCCCCCCCOc1ccc(N=Nc2ccc(N=Nc3ccc(N=Nc4ccc(OCc5ccc(CCCCC)cc5)cc4C)cc3)cc2)c(CC)c1` [Example 2]: in data set [1], the “Order parameter S (at RT)” value was determined as 0.83. In data set [2], the “λmax [nm] (CH2 Cl2)” value turned out to be 418 nm. The “Solubility L [%] (at RT)” value in data set [3] was 5.1%.
For `CCCCCCCCOc1ccc(N=Nc2ccc(N=Nc3ccc(N=Nc4ccc(OCc5ccc(CCCCC)cc5)cc4CC)cc3)cc2)c(C)c1` [Example 3], in that order: 0.82, 418 nm and 5.3%.
The like results for `CCCCCCCCOc1ccc(N=Nc2ccc(N=Nc3ccc(N=Nc4ccc(OCc5ccccc5)cc4CC)cc3)cc2)c(CC)c1` [Example 4] were, in that order, 0.79, 419 nm and 6.4%.
For `CCCCCCCCOc1ccc(N=Nc2ccc(N=Nc3ccc(N=Nc4ccc(OCc5ccc(OCCCCC)cc5)cc4CC)cc3)cc2)c(CC)c1` [Example 5], in that order: 0.79, 418 nm and 3.5%.
Consider `CCCCC(CC)COc1ccc(N=Nc2ccc(N=Nc3ccc(N=Nc4ccc(OCc5ccccc5)c5ccccc45)cc3)cc2)c(CC)c1` (stereo not drawn) [Example 9], for which, in data set [1], the “Order parameter S (at RT)” value is 0.81. The “λmax [nm] (CH2 Cl2)” value in data set [2] was 443 nm. Moreover, the “Solubility L [%] (at RT)” value in data set [3] turned out to be 2.0%.
With `CCCCC(CC)COc1ccc(N=Nc2ccc(N=Nc3ccc(N=Nc4ccc(OCc5ccccc5)cc4CC)cc3)cc2)c2ccccc12` (stereo not drawn) [Example 10], the “Order parameter S (at RT)” value in data set [1] was 0.81. For the same molecule, the “λmax [nm] (CH2 Cl2)” value in data set [2] is listed as 445 nm. For the same molecule, the “Solubility L [%] (at RT)” value in data set [3] is listed as 7.1%.
As to `CCCCCCCCOc1ccc(N=Nc2ccc(N=Nc3ccc(N=Nc4ccc(OCc5ccc(OCCCCC)cc5)c5ccccc45)cc3)cc2)c(CC)c1` [Example 11], in data set [1], the “Order parameter S (at RT)” value is 0.79. In addition, the “λmax [nm] (CH2 Cl2)” value in data set [2] came out at 437 nm. Further, in data set [3], the “Solubility L [%] (at RT)” value came to 3.4%.
On to `CCCCCCCCOc1ccc(N=Nc2ccc(N=Nc3ccc(N=Nc4ccc(OCc5ccc(CCCCC)cc5)c5ccccc45)cc3)cc2)c(CC)c1` [Example 12], for which, in data set [1], the “Order parameter S (at RT)” value was 0.79. Also, the “λmax [nm] (CH2 Cl2)” value in data set [2] is recorded as 441 nm. In addition, in data set [3], the “Solubility L [%] (at RT)” value turned out to be 2.4%.
For `CCCCCOc1ccc(COc2ccc(N=Nc3ccc(N=Nc4ccc(N=Nc5ccc(OCC(CC)CCCC)cc5CC)cc4)cc3)c3ccccc23)cc1` (stereo not drawn) [Example 13], in that order: 0.79, 435 nm and 2.9%.
For the molecule `CCCCCc1ccc(COc2ccc(N=Nc3ccc(N=Nc4ccc(N=Nc5ccc(OCC(CC)CCCC)cc5CC)cc4)cc3)c3ccccc23)cc1` (stereo not drawn) [Example 14], the “Order parameter S (at RT)” value in data set [1] amounted to 0.81. Further, the “λmax [nm] (CH2 Cl2)” value in data set [2] turned out to be 443 nm. Also, the “Solubility L [%] (at RT)” value in data set [3] turned out to be 5.0%.
The like results for `CCCCCCCCCCCCNc1ccc(N=Nc2ccc(N=Nc3ccc(N=Nc4ccc(OCCCCCCCC)cc4CC)cc3)cc2)c2ccccc12` [Example 15] were, in that order, 0.81, 535 nm and 2.0%.
For `CCCCCCCCCCCCNc1ccc(N=Nc2ccc(N=Nc3ccc(N=Nc4ccc(OCC(CC)CCCC)cc4CC)cc3)cc2)c2ccccc12` (stereo not drawn) [Example 16], the “Order parameter S (at RT)” value in data set [1] is 0.80. Further, in data set [2], the “λmax [nm] (CH2 Cl2)” value stood at 533 nm. Also, in data set [3], the “Solubility L [%] (at RT)” value is 8.0%.
In the case of `CCCCC(CC)COc1ccc(N=Nc2ccc(N=Nc3ccc(N=Nc4ccc(OCc5ccccc5)c5ccccc45)cc3)c3ccccc23)c(CC)c1` (stereo not drawn) [Example 19], the “Order parameter S (at RT)” value in data set [1] is 0.79. The “λmax [nm] (CH2 Cl2)” value in data set [2] amounted to 486 nm. The “Solubility L [%] (at RT)” value in data set [3] is listed as 1.6%.
The like results for `CCCCC(CC)COc1ccc(N=Nc2ccc(N=Nc3ccc(N=Nc4ccc(OCc5ccccc5)cc4CC)c4ccccc34)cc2)c2ccccc12` (stereo not drawn) [Example 20] were, in that order, 0.80, 489 nm and 1.3%.
Consider `CCCCC(CC)COc1ccc(N=Nc2ccc(N=Nc3ccc(N=Nc4ccc(OCc5ccccc5)cc4CC)c(OC)c3)cc2)c2ccccc12` (stereo not drawn) [Example 21], for which the “Order parameter S (at RT)” value in data set [1] was found to be 0.79. Besides, the “λmax [nm] (CH2 Cl2)” value in data set [2] was 459 nm. For the same molecule, the “Solubility L [%] (at RT)” value in data set [3] came to 5.5%.

These data come from patent US4952678A, “Trisazo dyes” (BASF Aktiengesellschaft, priority 1986, dated 1990).
